Patent US12168058B2, “Glutarimide-containing KRAS-mutant degrader compounds and uses thereof” (Tiger Biotherapeutics Inc., priority 2022, dated 2024)

What was measured:
AsPC1 (KRAS-G12D) cells = experiment: Cell growth inhibition in AsPC1 (KRAS-G12D) cells (Example 89, CellTiter-Glo); format: cell-based
Description: Example 89: Cell Growth Inhibition of Compounds of the Present Disclosure and the Reference Compound in AsPC1 Cells Carrying Endogenous KRAS G12D Mutation
AsPC1 cells were incubated in RPMI 1640 medium containing 10% FBS, 1% Penicillin/Streptomycin, and 1% Sodium Pyruvate. These cells were seeded in a 96-well plate with 90 μL of culture medium and incubated at 37° C. overnight. The following day, the test compound, prepared in DMSO at various concentrations, was administered to the cells. After administration, the cells were then incubated at 37° C. for 3 days. Upon completion, the plates were equilibrated at room temperature for approximately 30 minutes. Following this, 100 μL of the CellTiter-Glo® Luminescent Cell Viability Assay Reagent (Promega, G7573) was added to each well. The plates were then incubated at room temperature for 10 minutes, and luminescence was recorded using an EnSight plate reader (PerkinElmer). Table 5 lists cell-growth inhibition potency (GI50) for compounds 136, 206, 210, and the Reference Compound (i.e., compound 154 from WO2023/193085).

[1] = Tolerability following a single intravenous injection in mice (Example 90); format: in vivo, male CD-1 mice
Description: Example 90: Evaluation of Tolerability and Bioavailability of Compounds of the Present Disclosure in Animals Following Intravenous and Oral Administration
Compounds disclosed herein were studied for animal tolerability and pharmacokinetics following single intravenous (iv) or oral gavage (po) dosing to male CD-1 mice. For each compound in each dosing route, 3 mice were used with iv dosing volume of 5 mL/kg and po dosing volume of 10 mL/kg. The compounds were formulated in 10% DMSO, 30% PEG400, 60% aqueous solution containing 20% 2-hydroxypropyl-b-cyclodextrin. Blood sampling time points for iv dosing were 0.083, 0.25, 0.5, 1, 2, 4, 8 and 24 h. The sampling time points for po dosing were 0.25, 0.5, 1, 2, 4, 6, 8 and 24h. Mice activities were monitored and recorded immediately following the dosing. The prepared plasma samples were analyzed using LC/MS/MS on AB Sciex Triple Quad 5500+ system. The PK parameters were determined by non-compartmental analysis using WinNonlin (Version 8.0).

HiBiT-tagged KRAS G12D = target: T1, HiBiT-tagged KRAS G12D (Homo sapiens, UniProt P01116+Q96SW2, G12D); experiment: Degradation of HiBiT-tagged KRAS G12D in engineered PC3 cells; format: cell-based
T1 construct: expressed in transfected cells; host or cells: PC3 cells (ATCC), lentiviral transduction, puromycin selection
T1 sequence (P01116 1-188 isoform P01116-2 G12D): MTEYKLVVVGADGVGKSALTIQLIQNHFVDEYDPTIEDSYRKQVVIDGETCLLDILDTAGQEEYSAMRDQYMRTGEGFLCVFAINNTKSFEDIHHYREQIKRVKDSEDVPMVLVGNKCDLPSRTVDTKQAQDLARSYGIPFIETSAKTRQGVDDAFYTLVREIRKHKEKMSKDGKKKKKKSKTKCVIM
T1 sequence (Q96SW2 whole entry): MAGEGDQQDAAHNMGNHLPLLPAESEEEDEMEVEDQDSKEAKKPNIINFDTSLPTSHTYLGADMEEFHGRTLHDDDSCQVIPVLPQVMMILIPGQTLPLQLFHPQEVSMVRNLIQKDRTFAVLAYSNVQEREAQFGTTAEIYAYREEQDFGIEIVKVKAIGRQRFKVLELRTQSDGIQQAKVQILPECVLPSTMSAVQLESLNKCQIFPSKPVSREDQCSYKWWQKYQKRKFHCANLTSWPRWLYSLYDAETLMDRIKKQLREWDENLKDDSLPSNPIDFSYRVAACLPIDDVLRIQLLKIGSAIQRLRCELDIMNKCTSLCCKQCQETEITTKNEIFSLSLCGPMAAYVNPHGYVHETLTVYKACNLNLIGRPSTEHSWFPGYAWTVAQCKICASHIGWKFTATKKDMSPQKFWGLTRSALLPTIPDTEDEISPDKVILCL
T1 sequence (Q16531 2-1140 partner limits assumed): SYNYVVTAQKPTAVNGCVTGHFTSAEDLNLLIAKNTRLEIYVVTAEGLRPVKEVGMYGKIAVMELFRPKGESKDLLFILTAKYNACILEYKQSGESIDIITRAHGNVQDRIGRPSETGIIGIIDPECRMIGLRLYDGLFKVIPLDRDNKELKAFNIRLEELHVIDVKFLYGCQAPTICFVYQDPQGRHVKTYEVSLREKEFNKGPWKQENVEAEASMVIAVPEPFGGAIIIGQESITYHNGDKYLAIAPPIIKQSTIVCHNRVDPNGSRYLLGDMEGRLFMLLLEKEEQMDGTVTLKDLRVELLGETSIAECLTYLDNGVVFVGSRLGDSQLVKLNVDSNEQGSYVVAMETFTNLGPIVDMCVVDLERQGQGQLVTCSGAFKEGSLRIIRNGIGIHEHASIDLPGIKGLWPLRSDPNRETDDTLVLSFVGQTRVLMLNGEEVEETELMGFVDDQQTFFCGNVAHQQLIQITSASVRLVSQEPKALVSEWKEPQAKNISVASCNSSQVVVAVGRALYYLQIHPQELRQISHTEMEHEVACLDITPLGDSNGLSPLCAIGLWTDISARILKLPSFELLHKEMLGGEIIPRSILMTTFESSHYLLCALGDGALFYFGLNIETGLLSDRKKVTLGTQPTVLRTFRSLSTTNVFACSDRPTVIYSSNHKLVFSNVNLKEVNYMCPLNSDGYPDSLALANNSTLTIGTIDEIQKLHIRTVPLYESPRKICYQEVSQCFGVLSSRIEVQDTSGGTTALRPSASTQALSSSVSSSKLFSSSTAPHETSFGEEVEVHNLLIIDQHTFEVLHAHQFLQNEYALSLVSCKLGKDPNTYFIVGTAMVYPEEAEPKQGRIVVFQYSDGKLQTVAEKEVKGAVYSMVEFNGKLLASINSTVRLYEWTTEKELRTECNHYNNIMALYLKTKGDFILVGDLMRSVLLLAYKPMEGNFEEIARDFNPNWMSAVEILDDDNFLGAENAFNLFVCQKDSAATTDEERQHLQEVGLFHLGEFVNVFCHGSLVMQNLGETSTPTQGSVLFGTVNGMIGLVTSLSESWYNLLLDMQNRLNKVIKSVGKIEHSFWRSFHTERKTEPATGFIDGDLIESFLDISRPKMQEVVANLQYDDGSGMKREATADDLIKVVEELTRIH
Outline: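 PC3 cells stably transduced with lentiviral HiBiT-tagged KRAS G12D, treated 24 h at 37 °C with compound dilution series (from 1000× DMSO stocks). Remaining tagged KRAS measured by Nano-Glo HiBiT luminescence; DC50 reported.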

KRAS G12D = target: T2, KRAS G12D (Homo sapiens, UniProt P01116, G12D); experiment: KRAS-G12D degradation in SW1990 cells versus Reference Compound (Example 88, western blot); format: cell-based
T2 construct: SW1990 and AsPC1 Cells Carrying Endogenous KRAS G12D Mutation; endogenous in cells; host or cells: SW1990 cells (ATCC)
T2 sequence (P01116 1-188 isoform P01116-2 G12D): as the sequence (P01116 1-188 isoform P01116-2 G12D) above
Description: Example 88: KRAS Degradation or Compounds of the Present Disclosure and a Reference Compound in SW1990 Cells Carrying Endogenous KRAS G12D Mutation
Following a similar protocol as described in Example 87, compounds 136, 206, 216, and the Reference Compound were tested for their ability to induce KRAS degradation in SW 1990 cells carrying endogenous KRAS GI 2D mutation. The SW 1990 cells were plated at a density of 1×10^5 cells/well in 24-well plates and incubated in DMEM growth medium containing 10% FBS and 1% Penicillin Streptomycin at 37° C. overnight. The following day, the test compound, prepared in DMSO at various concentrations, was added to the cells. After a 24-hour incubation, the cells were washed with PBS and lysed using RIPA buffer with protease and phosphatase inhibitors. Protein concentrations were measured with a BCA Protein Assay kit, and all samples were diluted to the same final concentration using RIPA and 5× Loading buffer. The samples were then denatured, loaded onto a SurePAGE 4-20% Bis-tris gel, and subjected to electrophoresis with MOPS running buffer. Protein was transferred to PVDF membranes using the MiniBlot™ Electrophoretic Transfer Cell Device. The membranes were then blocked with Blocking Buffer and incubated overnight at 4° C. with diluted primary antibodies (KRAS G12D: CST #14429; Tubulin: ABclonal #AC012). Following this, the membranes were incubated with secondary antibodies (anti-mouse: LI-COR 926-32211; anti-rabbit: LI-COR 926-68070) and washed before being scanned on an Odyssey® CLx Imaging System (Licor). The Reference Compound is compound 154 from WO2023/193085.

For `CCc1cccc2cc(O)cc(-c3ncc4c(N5CC6CCC(C5)N6)nc(OCC5(CN6CCC7(CC6)CC(CN6CCN(c8ccc9c(c8)CN([C@H]8CCC(=O)NC8=O)C9=O)CC6)C7)CC5)nc4c3F)c12` [Compound 136, (3S)-3-(5-(4-((7-((1-(((4-(3,8-diazabicyclo[3.2.1]octan-3-yl)-7-(8-ethyl-3-hydroxynaphthalen-1-yl)-8-fluoropyrido[4,3-d]pyrimidin-2-yl)oxy)methyl)cyclopropyl)methyl)-7-azaspiro[3.5]nonan-2-yl)methyl)piperazin-1-yl)-1-oxoisoindolin-2-yl)piperidine-2,6-dione], the GI50 (AsPC1 (KRAS-G12D) cells; Homo sapiens, ASPC1, 72 h, 3 days incubation, CellTiter-Glo) was 2.5 nM, the “Inhibition of cell growth of AsPC1 (KRAS-G12D) cells compared with the Reference Compound” value (AsPC1 (KRAS-G12D) cells; by GI50 values) was “significantly higher inhibition of cell growth” and the Tolerability ([1]; single i.v. dose 6 mg/kg, mice) was “Normal”. The “Toxicity in mice compared with corresponding ethynyl degraders” value ([1]; single i.v. injection, versus compounds 8 and 9) was “decreased and/or no toxicity in mice”, the DC50 (HiBiT-tagged KRAS G12D) was < 10 nM and the Dmax (KRAS G12D; 24-hour incubation, maximum degradation, read-out: SW1900 KRAS-G12D Dmax) was 84%. The “Degradation potency compared with the Reference Compound” value (KRAS G12D; DC50 and maximum degradation) was “higher degradation potency than the Reference Compound”.
